Earlier results on three compounds are cited in patent publication US20080138383A1, “COMPOSITIONS AND METHODS FOR TREATING SEIZURES” (priority 2006, published 2008).

Like-named read-outs stand apart in the source and are kept apart here.

For data set [1] the following is noted: in vivo.

Consider `O=C1CN=C(c2ccccc2)c2cc(Cl)ccc2N1` [desmethyldiazepam], for which the “activity relative to the parent drug” value (main active metabolite versus diazepam) is on record as “somewhat less active than the parent drug”. For the compound `O=C1Nc2ccc(Cl)cc2C(c2ccccc2Cl)=NC1O` (centres unmarked) [lorazepam], the onset of action entry was “up to 1 hour” (after intramuscular administration) and “several minutes” (after intravenous administration). In addition, where the note is “estimates”, the “dose equivalent to 5 mg of diazepam” value is given as “approximately 0.5 mg”.

In the case of `Cc1ncc2n1-c1ccc(Cl)cc1C(c1ccccc1F)=NC2` [midazolam], the elimination half-life in data set [1] was 1.5 to 3.5 h.
